For the experiment, the target named is T1, human GPR84 receptor (Homo sapiens, UniProt Q9NQS5).
T1 construct: host or cells: HEK293, transient transfection
In words: Gαi biosensor BRET assay in HEK293 cells (antagonism of ZQ-16). The note with it: for inhibition at 10 µM: HEK293, single concentration 10 μM (designated F); for IC50: HEK293 cells, antagonism of 200 nmol/L ZQ-16; for inhibition at 2 µM: HEK293, single concentration 2 μM (designated A); for inhibition at 25 µM: HEK293, single concentration 25 μM (designated I). The format is cell-based. The essentials: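 Antagonist mode: test compound 5 min at 37° C, followed by ZQ-16 agonist (200 nmol/L, 5 min, room temperature), in HEK293 cells transfected with GPR84 plus Rluc8-tagged Gαi2, GFP10-Gγ2 and Gβ1. Readout as GFP10/Rluc8 emission ratio after 5 μmol/L coelenterazine 400A, net of Rluc8-only and vehicle signal.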
(In general: In BRET a luciferase serves as donor, and the signal depends on an acceptor being close.)

T1 sequence (Q9NQS5 whole entry): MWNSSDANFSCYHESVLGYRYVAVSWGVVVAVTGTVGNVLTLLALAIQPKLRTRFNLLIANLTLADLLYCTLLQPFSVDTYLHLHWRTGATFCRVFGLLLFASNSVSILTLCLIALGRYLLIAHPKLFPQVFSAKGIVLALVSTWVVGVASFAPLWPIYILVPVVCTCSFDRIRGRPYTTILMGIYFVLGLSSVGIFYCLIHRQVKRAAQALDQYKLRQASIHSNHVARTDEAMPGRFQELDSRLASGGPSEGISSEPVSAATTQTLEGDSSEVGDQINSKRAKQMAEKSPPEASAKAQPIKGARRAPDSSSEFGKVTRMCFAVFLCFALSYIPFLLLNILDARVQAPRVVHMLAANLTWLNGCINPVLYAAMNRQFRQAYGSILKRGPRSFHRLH

Regarding `Cc1cc(C#CC2CC2)ccc1-c1cn(Cc2ncco2)nn1` [Compound I-143], the inhibition at 10 µM was at most 25%.
Same read-out and setting: in the case of `COC(c1cn(CC2CCCCO2)nn1)c1cc(C#CC2CC2)ccc1C(F)(F)F` (stereo not drawn) [Compound I-655] it was 50 to 75%.
`C[C@@H]1Cc2oc(C(=O)NC[C@@H]3COCCO3)c(C(F)(F)F)c2-c2nn(CC3CCN(C(=O)C4CC4)CC3)cc21` [Compound I-787]: the inhibition at 10 µM was at most 25% and the IC50 lay within 0.3 to 1 µM.
Consider `CN(C)c1cc(N2CC(C)(CO)C2)c(F)cc1-c1cn(CC2OCC(C)(C)CO2)nn1` [Compound I-711], for which the inhibition at 2 µM was over 75% and the IC50 is at most 0.3 µM.
`CC(C)Oc1cc(N2CC(C)(C)C2)cnc1-c1cn(CC2OCC(C)(C)CO2)nn1` [Compound I-664] yielded an inhibition at 10 µM of over 75% and an IC50 of at most 0.3 µM.
`Cc1cc(N2CCN([C@H](C)c3ccccn3)CC2)ccc1-c1cn(C[C@H]2CCCCO2)nn1` [Compound I-611] returned an inhibition at 10 µM of 25 to 50%.
On the same count and under the same terms, in the case of `Cc1cc(CCCCN2CCCCC2)ccc1-c1cn(CC2CCCCO2)nn1` (stereo not drawn) [Compound I-270] it was at most 25%.
`CCc1c(C#CC2CC2)cccc1Cc1cn(CC2CCCCO2)nn1` (stereo not drawn) [Compound I-476] displayed an inhibition at 2 µM of at most 25%.
In turn, `Cc1ccc(C#CC2CC2)cc1-c1cn(CC2OCCCC2(C)C)nn1` (stereo not drawn) [Compound I-568] yielded an inhibition at 10 µM of at most 25%.
On the same count and under the same terms, in the case of `Cc1cc(Cl)c(N2CC(C)(C)C2)cc1-c1cn(C[C@H]2CCCCO2)nn1` [Compound I-431] it was at most 25%.
Regarding `Cc1ccc(-c2cccc(-c3cn(C[C@H]4CCCCO4)nn3)c2)cn1` [Compound I-33], the inhibition at 25 µM was 25 to 50%.
As for `Cc1cc(N2CCN(Cc3cccnc3)CC2)ccc1-c1cn(CC2CCCCO2)nn1` (stereo not drawn) [Compound I-578], the inhibition at 10 µM fell in the range of 50 to 75% and the concentration for half-maximal inhibition (IC50) was over 3 µM.
For `Cc1ccc(C#CC2CC2)cc1C1(c2cn(CC3CCCCO3)nn2)OCCO1` (stereo not drawn) [Compound I-604], in that order: over 75% and 1 to 3 µM.
Regarding `CC(C)Oc1cc(C#CCNc2ccccn2)cnc1-c1cn(CC2CC(C)(C)CO2)nn1` (stereo not drawn) [Compound I-606], the inhibition at 10 µM was 50 to 75%.
In the case of `CCOCC#Cc1cnc(-c2cn(CC3OCC(C)(C)CO3)nn2)c(OC2CC2)c1` [Compound I-819], the inhibition at 10 µM was over 75% and the IC50 was at most 0.3 µM.
`CC1(C)CN(CC#Cc2cnc(-c3cn(CC4OCC5(CC5)CO4)nn3)c(OC3CC3)c2)C1` [Compound I-794] gave an inhibition at 2 µM of over 75% and an IC50 of at most 0.3 µM.
`Cc1cc(C#CC2CC2)ccc1-c1cn(Cc2ccccn2)nn1` [Compound I-312] returned an inhibition at 10 µM of 25 to 50%.
On the same count and under the same terms, in the case of `Cc1cc(N2CCCCC2)ccc1-c1cn(CC2CCCCO2)nn1` (stereo not drawn) [Compound I-256] it was at most 25%.
The compound `Cc1cc(C#CC2CC2)ccc1-c1cn(CC2CC3(CC3)CO2)nn1` (stereo not drawn) [Compound I-569] came in with an inhibition at 10 µM of over 75% and an IC50 of 1 to 3 µM.
The compound `Cc1ccc(-c2cccc(-c3nnn(CC4CCCCO4)c3C)c2)cn1` (stereo not drawn) [Compound I-95] had an inhibition at 10 µM of at most 25%.
Same read-out and setting: for `Cc1cc(C#CC2COC2)ccc1-c1cn(CC2CCCCO2)nn1` (stereo not drawn) [Compound I-576] the value was 50 to 75%.
`C(#CC1CC1)c1ccc(-c2cnn(CC3CCCCO3)c2)cc1` (stereo not drawn) [Compound I-317] showed an inhibition at 25 µM of at most 25%.
`Cc1cc(C#CC2CC2)ccc1-c1cn(CC2CCCCS2(=O)=O)nn1` (stereo not drawn) [Compound I-248]: the inhibition at 10 µM was at most 25%.
On the same count and under the same terms, in the case of `CNC1(C)CN(c2ccc(-c3cn(CC4CCCCO4)nn3)c(C)c2)C1` (stereo not drawn) [Compound I-506] it was 50 to 75%; in that of `Cc1cc(N2CC3CCC2CN3Cc2ccccn2)ccc1-c1cn(CC2CCCCO2)nn1` (stereo not drawn) [Compound I-550], 50 to 75%.
Same read-out and setting: for `Cc1cc(N2CC(N(C)Cc3ccccc3)C2)ccc1-c1cn(CC2CCCCO2)nn1` (stereo not drawn) [Compound I-185] the value was at most 25%.
Compound `Cc1ccccc1-c1cn(CC#Cc2cnc(-c3cn(CC4CCCCO4)nn3)c(C)c2)nn1` (stereo not drawn) [Compound I-734] displayed an inhibition at 10 µM of over 75% and a half-inhibitory concentration (IC50) of 0.3 to 1 µM.
`COCCn1cc(-c2ccc(C#CCNc3ccccc3)cc2C)nn1` [Compound I-161] yielded an inhibition at 10 µM of at most 25%.
For `Cc1cc(C#CC2(O)CC2)ccc1-c1cn(CC2CCCCO2)nn1` (stereo not drawn) [Compound I-215], the inhibition at 10 µM is 50 to 75%.
In turn, `CCc1cc(C#CCNC(=O)OC(C)C)ccc1-c1cn(CC2CCCCO2)nn1` (stereo not drawn) [Compound I-598] came in with an inhibition at 10 µM of over 75% and an IC50 of 1 to 3 µM.
In turn, `CNC1CCCN(c2ccc(-c3cn(CC4CCCCO4)nn3)c(C)c2)C1` (stereo not drawn) [Compound I-170] gave an inhibition at 10 µM of at most 25%.
For the compound `CCc1cc(C#CC2CC2)cnc1-c1cn(CC2CCCCO2)nn1` (stereo not drawn) [Compound I-220], the inhibition at 10 µM is over 75% and the IC50 was 0.3 to 1 µM.
As to `Cc1cc(C#CCO)ccc1-c1cn(CC2OCC(F)(F)CO2)nn1` [Compound I-692], the inhibition at 10 µM lay in the range of 50 to 75%.
Still for that read-out and setting: for `COCC#Cc1cnc(-c2cn(CC3CCCCO3)nn2)c(C)c1` (stereo not drawn) [Compound I-273] the value was 50 to 75%; for `Cc1cc(N2CCN(C(=O)c3ccccn3)CC2)ccc1-c1cn(CC2CCCCO2)nn1` (stereo not drawn) [Compound I-534], at most 25%.
The same measure, in the same setting: for `Cc1cc(C(=O)Nc2cc[nH]n2)ccc1-c1cn(CC2CCCCO2)nn1` (stereo not drawn) [Compound I-559] the value was at most 25%.
On to `Cc1ccc(-c2ccc(-c3cn(C[C@H]4COCCO4)nn3)cc2)cn1` [Compound I-25], for which the inhibition at 12.5 µM (HEK293, single concentration 12.5 μM (designated G)) was at most 25%.
Consider `Cc1ccc(C#CC2CC2)cc1Cc1cn(CC2COc3ncccc3O2)nn1` (stereo not drawn) [Compound I-552], for which the inhibition at 2 µM lay in the range of 25 to 50%.
With `Cc1cc(C#CCNC2CC2)ccc1-c1cn(CC2OCC(C)(C)CO2)cn1` [Compound I-820], the inhibition at 2 µM is over 75% and the concentration for half-maximal inhibition (IC50) fell in the range of 0.3 to 1 µM.
`CC1(C)COC(Cn2cc(-c3ccc(N4CC(C)(CO)C4)cc3OC3CC3)nn2)OC1` [Compound I-767] registered an IC50 of 0.3 to 1 µM.
`CC1(C)COC(Cn2cc(-c3cn(CC4OCC(C)(C)CO4)nn3)nn2)OC1` [Compound I-827] showed an inhibition at 10 µM of 50 to 75%.
For `C(#CC1CC1)c1ccc(-c2nnnn2CC2CCCCO2)cc1` (stereo not drawn) [Compound I-346], the inhibition at 25 µM lay within 25 to 50% and the IC50 was over 3 µM.
Compound `Cc1cc(N2CC3(CN(c4cccnc4)C3)C2)ccc1-c1cn(CC2OCC(C)(C)CO2)nn1` [Compound I-684] gave an inhibition at 10 µM of over 75%.
On to `Cc1ccc(C#CC2CC2)cc1Cc1cn(CC2CCCCO2)nn1` (stereo not drawn) [Compound I-299], for which the IC50 was over 3 µM.
The compound `Cc1ccccc1-c1cn(CC2CCCCO2)nn1` (stereo not drawn) [Compound I-467] returned an inhibition at 10 µM of at most 25%.
The same measure, in the same setting: in the case of `COC(c1cn(CC2OCC(C)(C)CO2)nn1)c1cc(C#CC2CC2)ccc1C` (stereo not drawn) [Compound I-592] it was 50 to 75%.
Turning to `CC(C)Oc1cc(C#CC2CC2)cnc1-c1cn(Cc2ncccn2)nn1` [Compound I-502], the inhibition at 10 µM was over 75% and the IC50 was 1 to 3 µM.
Compound `COc1cc(-c2cn(C[C@H]3CCCCO3)nn2)c(C)cc1N1CC(C)(C)C1` [Compound I-422] displayed an inhibition at 10 µM of at most 25%.
Turning to `COCCn1cc(-c2ccc(C#CC3CC3)cc2C)nn1` [Compound I-104], the inhibition at 10 µM is at most 25%.

The term inhibition denotes the change of the read-out against control, counted positive when it falls. One may read the IC50 as the concentration at which inhibition is half-maximal. A high value points to weaker potency in that assay.

These data come from US12617777B2, “GPR84 antagonists and uses thereof” (Liminal BioSciences Limited, priority 2021, dated 2026).
